# From patent publication US10822349B2, “Macrocyclic purines for the treatment of viral infections” (JANSSEN SCIENCES IRELAND UNLIMITED COMPANY, priority 2012, dated 2020)
# Where two headings read alike, the source gives them in different places.
# Tests used:
# [1] = rcm bond
# human TLR7 = target: T1, human TLR7 (Homo sapiens, UniProt Q9NYK1); experiment: TLR7 cellular reporter assay (HEK293 TLR7-NFκB-luc); assay type: cell-based; settings: lowest effective concentration; HEK293 transiently transfected with TLR7 and NFκB-luc; 6 hours incubation
# T1 construct: expressed in transfected cells; host or cells: HEK293
# T1 sequence (Q9NYK1 27-1049): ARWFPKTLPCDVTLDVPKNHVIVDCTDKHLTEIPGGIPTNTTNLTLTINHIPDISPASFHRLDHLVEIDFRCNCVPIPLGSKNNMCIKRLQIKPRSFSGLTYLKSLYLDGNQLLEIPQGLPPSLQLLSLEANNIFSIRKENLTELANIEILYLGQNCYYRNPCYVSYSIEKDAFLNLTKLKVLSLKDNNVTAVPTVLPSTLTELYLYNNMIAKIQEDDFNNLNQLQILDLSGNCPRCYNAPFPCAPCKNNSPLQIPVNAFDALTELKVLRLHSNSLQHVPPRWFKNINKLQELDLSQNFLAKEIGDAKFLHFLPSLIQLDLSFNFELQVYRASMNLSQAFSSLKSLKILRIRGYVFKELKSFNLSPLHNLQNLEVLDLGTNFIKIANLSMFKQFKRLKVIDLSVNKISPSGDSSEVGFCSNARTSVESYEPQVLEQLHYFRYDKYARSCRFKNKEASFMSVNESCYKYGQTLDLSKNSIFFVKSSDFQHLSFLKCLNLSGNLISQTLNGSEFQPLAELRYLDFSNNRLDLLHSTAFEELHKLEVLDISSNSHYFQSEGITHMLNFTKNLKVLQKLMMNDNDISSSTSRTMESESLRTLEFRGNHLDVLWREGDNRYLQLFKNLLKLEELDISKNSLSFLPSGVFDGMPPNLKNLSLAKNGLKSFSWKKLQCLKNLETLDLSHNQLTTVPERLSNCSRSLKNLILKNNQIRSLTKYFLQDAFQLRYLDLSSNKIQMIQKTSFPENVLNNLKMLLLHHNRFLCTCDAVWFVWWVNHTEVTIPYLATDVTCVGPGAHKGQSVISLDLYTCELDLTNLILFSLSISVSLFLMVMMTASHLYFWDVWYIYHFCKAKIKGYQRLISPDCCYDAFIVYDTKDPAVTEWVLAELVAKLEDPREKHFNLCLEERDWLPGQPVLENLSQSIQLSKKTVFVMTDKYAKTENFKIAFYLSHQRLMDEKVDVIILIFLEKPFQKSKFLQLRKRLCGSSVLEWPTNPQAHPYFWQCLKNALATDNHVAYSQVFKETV
# Procedure: The ability of compounds to activate human TLR7 and TLR8 was assessed in a cellular reporter assay using HEK293 cells transiently transfected with a TLR7 or TLR8 expression vector and NFκB-luc reporter construct. Briefly, HEK293 cells were grown in culture medium (DMEM supplemented with 10% FCS and 2 mM Glutamine). For transfection of cells in 10 cm dishes, cells were detached with Trypsin-EDTA, transfected with a mix of CMV-TLR7 or TLR8 plasmid (750 ng), NFκB-luc plasmid (375 ng) and a transfection reagent and incubated 48 hours at 37° C. in a humidified 5% CO2 atmosphere. Transfected cells were then detached with Trypsin-EDTA, washed in PBS and resuspended in medium to a density of 1.67×10^5 cells/mL. Thirty microliters of cells were then dispensed into each well in 384-well plates, where 10 μL of compound in 4% DMSO was already present. Following 6 hours incubation at 37° C., 5% CO2, the luciferase activity was determined by adding 15 μl of Steady Lite Plus substrate (Perkin Elmer) to each well and readout performed on a ViewLux ultraHTS microplate imager (Perkin Elmer). Dose response curves were generated from measurements performed in quadruplicates. Lowest effective concentrations (LEC) values, defined as the concentration that induces an effect which is at least two fold above the standard deviation of the assay, were determined for each compound.
# [2] = system: interferon production in human PBMC; experiment: Interferon production in human PBMC, read out on HEK-ISRE-luc reporter cells; assay type: cell-based; settings: Homo sapiens, PBMC, 24 h, lowest effective concentration, PBMC supernatant after overnight incubation transferred to HEK-ISRE-luc cells, read-out: PBMC HEK-ISRE-luc (LEC; μM)
# Procedure: Activation of human TLR7 results in robust production of interferon by plasmacytoid dendritic cells present in human blood. The potential of compounds to induce interferon was evaluated by determination of interferon in the conditioned media from peripheral blood mononuclear cells (PBMC). The presence of interferon in the samples was determined, using an interferon reporter cell line stably expressing an interferon-stimulated responsive elements (ISRE)-luc reporter construct. The ISRE element with sequence GAAACTGAAACT (SEQ ID: 1) is highly responsive to the STAT1-STAT2-IRF9 transcription factor, which becomes activated upon binding of IFN-I to the IFN receptor. Briefly, PBMCs were prepared from buffy coats of at least two donors using a standard Ficoll centrifugation protocol. Isolated PBMCs were resuspended in RPMI medium supplemented with 10% human AB serum and 2×10^5 cells/well were dispensed into 384-well plates containing compounds (70 μL total volume). After overnight incubation of the PBMCs with the compounds, 10 μL of supernatant was transferred to 384-well plates containing 5×10^3 HEK-ISRE-luc cells/well in 30 μL (plated the day before). Following 24 hours of incubation, activation of the ISRE elements was measured by assaying luciferase activity using 40 μL/well Steady Lite Plus substrate (Perkin Elmer) and measured with ViewLux ultraHTS microplate imager (Perkin Elmer). The stimulating activity of each compound on the HEK-ISRE-luc cells was reported as LEC. The LEC in turn indicates the degree of ISRE activation on transfer of a defined amount of PBMC culture medium. Recombinant interferon alfa-2a (Roferon-A) was used as a standard control compound.
structure (smiles),measurement,setting,value
CCOC(=O)N1CCc2cccc(c2)OCC=CCCOc2nc(N)c([N+](=O)[O-])c1n2,"ring closure, yield of all isomers","[1]; from C=CCCOc1nc(N)c([N+](=O)[O-])c(N(CCc2cccc(OCC=C)c2)C(=O)OCC)n1, Grubbs catalyst 2nd generation, CH2Cl2, 5.2 mM, 25.0 °C, 7.0 h",52%
CCOC(=O)N1CCc2cccc(c2)OCC=CCOc2nc(N)c([N+](=O)[O-])c1n2,"ring closure, yield of all isomers","[1]; from C=CCOc1cccc(CCN(C(=O)OCC)c2nc(OCC=C)nc(N)c2[N+](=O)[O-])c1, Grubbs 2nd generation, dichloromethane, 5.2 mM, 25.0 °C, 36.0 h",56.5%
CCOC(=O)N1Cc2cc(OC)cc(c2)OCC=CCOc2nc(N)c([N+](=O)[O-])c1n2,"ring closure, yield of all isomers","[1]; from C=CCOc1cc(CN(C(=O)OCC)c2nc(OCC=C)nc(N)c2[N+](=O)[O-])cc(OC)c1, Grubbs-Hoveyda catalyst 2nd generation (with chlorodicyclohexylborane), 1,2-dichloroethane, 3.63 mM, 120.0 °C, 18.0 h",27%
CCOC(=O)N1Cc2ccc(F)c(c2)OCC=CCOc2nc(N)c([N+](=O)[O-])c1n2,"ring closure, yield of all isomers","[1]; from C=CCOc1nc(N)c([N+](=O)[O-])c(N(Cc2ccc(F)c(OCC=C)c2)C(=O)OCC)n1, Grubbs-Hoveyda catalyst 2nd generation (with chlorodicyclohexylborane), 1,2-dichloroethane, 5.07 mM, 120.0 °C, 3.0 h",58%
CCOC(=O)N1Cc2ccc(OC)c(c2)OCC=CCOc2nc(N)c([N+](=O)[O-])c1n2,"ring closure, yield of all isomers","[1]; from C=CCOc1nc(N)c([N+](=O)[O-])c(N(Cc2ccc(OC)c(OCC=C)c2)C(=O)OCC)n1, Grubbs catalyst 2nd generation, CH2Cl2, 3.63 mM, 25.0 °C, 66.0 h",7.6%
CCOC(=O)N1Cc2cccc(c2)CC=CCCC(CO[Si](C)(C)C(C)(C)C)Nc2nc(N)c([N+](=O)[O-])c1n2 (centres unmarked),"ring closure, yield of all isomers","[1]; from C=CCCC(CO[Si](C)(C)C(C)(C)C)Nc1nc(N)c([N+](=O)[O-])c(N(Cc2cccc(CC=C)c2)C(=O)OCC)n1, Grubbs catalyst 2nd generation, CH2Cl2, 7.83 mM, 25.0 °C, 24.0 h",70%
CCOC(=O)N1Cc2cccc(c2)CC=CCCCOc2nc(N)c([N+](=O)[O-])c1n2,"ring closure, yield of all isomers","[1]; from C=CCCCOc1nc(N)c([N+](=O)[O-])c(N(Cc2cccc(CC=C)c2)C(=O)OCC)n1, Grubbs catalyst 2nd generation, CH2Cl2, 3.13 mM, 25.0 °C, 2.0 h",73%
CCOC(=O)N1Cc2cccc(c2)CC=CCCOc2nc(N)c([N+](=O)[O-])c1n2,"ring closure, yield of all isomers","[1]; from C=CCCOc1nc(N)c([N+](=O)[O-])c(N(Cc2cccc(CC=C)c2)C(=O)OCC)n1, Grubbs catalyst 2nd generation, CH2Cl2, 3.14 mM, 25.0 °C, 16.0 h",27.4%
CCOC(=O)N1Cc2cccc(c2)OCC=CCOc2nc(N)c([N+](=O)[O-])c1n2,"ring closure, yield of all isomers","[1]; from C=CCOc1cccc(CN(C(=O)OCC)c2nc(OCC=C)nc(N)c2[N+](=O)[O-])c1, Hoveyda-Grubbs 2nd generation (with chlorodicyclohexylborane), 1,2-dichloroethane, 4.22 mM, 120.0 °C, 4.0 h",36%
CCOC(=O)N1Cc2ncccc2OCC=CCCOc2nc(N)c([N+](=O)[O-])c1n2,"ring closure, yield of all isomers","[1]; from C=CCCOc1nc(N)c([N+](=O)[O-])c(N(Cc2ncccc2OCC=C)C(=O)OCC)n1, Hoveyda-Grubbs 2nd generation (with chlorodicyclohexylborane), 1,2-dichloroethane, 3.74 mM, 80.0 °C, 1.0 h",70%
CCOC(=O)N1Cc2ncccc2OCCC=CCOc2nc(N=P(c3ccccc3)(c3ccccc3)c3ccccc3)c([N+](=O)[O-])c1n2,"ring closure, yield of all isomers","[1]; from C=CCCOc1cccnc1CN(C(=O)OCC)c1nc(OCC=C)nc(N=P(c2ccccc2)(c2ccccc2)c2ccccc2)c1[N+](=O)[O-], Hoveyda-Grubbs 2nd generation (with chlorodicyclohexylborane), 1,2-dichloroethane, 2.98 mM, 120.0 °C, 31.0 h",54%
CCOc1nc2c(N)nc3nc2n1Cc1cccc(c1)CC=CCCCn1ccnc1-3,"ring closure, yield of all isomers","[1]; from C=CCCCn1ccnc1-c1nc(N)c2nc(OCC)n(Cc3cccc(CC=C)c3)c2n1, Grubbs catalyst 2nd generation, CH2Cl2, 3.76 mM, 25.0 °C, 24.0 h",5%
COc1nc2c(N)nc3nc2n1Cc1cccc(c1)CC=CCCO3,"ring closure, yield of all isomers","[1]; from C=CCCOc1nc(N)c2nc(OC)n(Cc3cccc(CC=C)c3)c2n1, Grubbs catalyst 2nd generation, CH2Cl2, 3.42 mM, 24.0 h",23%
Nc1nc2nc3c1ncn3Cc1cccc(c1)CC=CCCO2,"ring closure, yield of all isomers","[1]; from C=CCCOc1nc(N)c2ncn(Cc3cccc(CC=C)c3)c2n1, Hoveyda-Grubbs 2nd generation (with chlorodicyclohexylborane), 1,2-dichloroethane, 2.98 mM, 120.0 °C, 23.0 h",34%
Nc1nc2nc3c1ncn3Cc1ncccc1OCC=CCCO2,"ring closure, yield of all isomers","[1]; from C=CCCOc1nc(N)c2ncn(Cc3ncccc3OCC=C)c2n1, Grubbs-Hoveyda catalyst 2nd generation (with chlorodicyclohexylborane), 1,2-dichloroethane, 3.04 mM, 120.0 °C, 10.0 h",5%
Nc1nc2nc3c1nc(O)n3CCc1cccc(c1)CCCCCO2 [Compound 83],HEK293 TLR7-NFκB-luc (LEC; μM),human TLR7,>25 µM
same,minimal effective concentration,[2],2.66 µM
Nc1nc2nc3c1nc(O)n3CCc1cccc(c1)OC/C=C\CO2 [Compound 84],HEK293 TLR7-NFκB-luc (LEC; μM),human TLR7,3.4 µM
same,minimal effective concentration,[2],0.51 µM
CN1CCOC(=O)Cc2cccc(c2)Cn2c(O)nc3c(N)nc1nc32 [Compound 85],HEK293 TLR7-NFκB-luc (LEC; μM),human TLR7,0.33 µM
same,minimal effective concentration,[2],12.5 µM
Nc1nc2nc3c1nc(O)n3CCc1cccc(c1)OC/C=C/CCO2 [Compound 86],HEK293 TLR7-NFκB-luc (LEC; μM),human TLR7,7.91 µM
same,minimal effective concentration,[2],2.43 µM
